Results reported in the supplement of paper PMC8617591.

Columns and labels:
[1] = tested on: Mycobacterium tuberculosis Erdman (autoluminescent); test: FIC90 (Loewe) at 90% inhibition (log2); higher = more antagonistic
Description: (§1)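 DiaMOND equipotent two-drug combination dose responses against autoluminescent M. tuberculosis Erdman in 8 in vitro models. Read-out is OD600, or luminescence for the intracellular and dormancy models, normalised to untreated wells. Hill-fit Einf, AUC25 and GRinf are potency metrics; FIC50 and FIC90 are Loewe-additivity fractional inhibitory concentrations, given as log2 (negative = synergy). Replicates are averaged.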

[2] = tested on: Mycobacterium tuberculosis Erdman (autoluminescent); test: FIC50 (Loewe) at 50% inhibition (log2); higher = more antagonistic
Description: as §1

[3] = tested on: Mycobacterium tuberculosis Erdman (autoluminescent); test: Einf, fitted maximum growth inhibition of combination (fraction); higher = stronger maximal inhibition
Description: as §1

[4] = tested on: Mycobacterium tuberculosis Erdman (autoluminescent); test: AUC25, normalised area under dose response up to IC25 (fraction (0-1)); higher = more potent at low dose
Description: as §1

[5] = tested on: Mycobacterium tuberculosis Erdman (autoluminescent); test: GRinf, maximum normalised growth rate inhibition (unitless (-1 to 1)); higher = less effect (negative = killing)
Description: as §1

CC(=O)NC[C@H]1CN(c2ccc(N3CCOCC3)c(F)c2)C(=O)O1 [linezolid] + CO[C@H]1/C=C/O[C@@]2(C)Oc3c(C)c(O)c4c(O)c(c(/C=N/N5CCN(C6CCCC6)CC5)c(O)c4c3C2=O)NC(=O)/C(C)=C\C=C\[C@H](C)[C@H](O)[C@@H](C)[C@@H](O)[C@@H](C)[C@H](OC(C)=O)[C@@H]1C [rifapentine]
Settings | AUC25, [4] | Einf, [3] | FIC50, [2] | FIC90, [1] | GRinf, [5]
in vitro model: acidic pH 5.7, time point: constant (~7 days, model-specific) | 0.0817 | 0.89 | 0.435 | – | -0.248
in vitro model: acidic pH 5.7, time point: terminal (~4-5 doublings, model-specific) | 0.0632 | 0.979 | 0.277 | 0.184 | -0.205
in vitro model: intracellular J774, time point: constant = terminal | – | 0.948 | – | -0.637 | -0.209

Settings | AUC25, [4] | Einf, [3] | FIC50, [2] | FIC90, [1] | GRinf, [5]
in vitro model: butyrate, time point: constant (~7 days, model-specific) | 0.0729 | 0.876 | 0.227 | -0.305 | 0.113
in vitro model: butyrate, time point: terminal (~4-5 doublings, model-specific) | 0.0445 | 0.934 | 0.0572 | -0.553 | 0.0794
in vitro model: cholesterol 0.05 mM, time point: constant (~7 days, model-specific) | 0.156 | 0.718 | -0.52 | – | -0.0866
in vitro model: cholesterol 0.05 mM, time point: terminal (~4-5 doublings, model-specific) | 0.107 | 0.929 | -0.0542 | 0.274 | -0.162
in vitro model: cholesterol-high 0.2 mM, time point: constant (~7 days, model-specific) | 0.109 | 0.966 | -0.254 | -0.688 | -0.499
in vitro model: cholesterol-high 0.2 mM, time point: terminal (~4-5 doublings, model-specific) | 0.103 | 1 | 0.0666 | 0.0759 | -0.762
in vitro model: dormancy (butyrate + nitrate, low O2), time point: constant (~7 days, model-specific) | 0.0497 | 0.908 | 0.552 | 0.666 | 0.107
in vitro model: dormancy (butyrate + nitrate, low O2), time point: terminal (~4-5 doublings, model-specific) | 0.0324 | 0.979 | 0.585 | 0.484 | -0.13
in vitro model: standard 7H9 glycerol, time point: constant = terminal | 0.0541 | 0.927 | 0.266 | 0.154 | -0.0203
in vitro model: valerate, time point: constant (~7 days, model-specific) | 0.064 | 0.849 | 0.063 | – | 0.119
in vitro model: valerate, time point: terminal (~4-5 doublings, model-specific) | 0.0448 | 0.935 | 0.198 | 0.078 | 0.0691

CC[C@@H](CO)NCCN[C@@H](CC)CO [ethambutol] + CO[C@H]1/C=C/O[C@@]2(C)Oc3c(C)c(O)c4c(O)c(c(/C=N/N5CCN(C)CC5)c(O)c4c3C2=O)NC(=O)/C(C)=C\C=C\[C@H](C)[C@H](O)[C@@H](C)[C@@H](O)[C@@H](C)[C@H](OC(C)=O)[C@@H]1C [rifampicin]
Settings | AUC25, [4] | Einf, [3] | FIC50, [2] | FIC90, [1] | GRinf, [5]
in vitro model: acidic pH 5.7, time point: constant (~7 days, model-specific) | 0.0993 | 0.914 | -0.394 | – | -0.41
in vitro model: acidic pH 5.7, time point: terminal (~4-5 doublings, model-specific) | 0.0298 | 0.979 | 0.0255 | -0.711 | -0.247
in vitro model: intracellular J774, time point: constant = terminal | – | 0.967 | – | -2.96 | -0.274

Settings | AUC25, [4] | Einf, [3] | FIC50, [2] | FIC90, [1] | GRinf, [5]
in vitro model: butyrate, time point: constant (~7 days, model-specific) | 0.0748 | 0.918 | 0.144 | – | -0.00723
in vitro model: butyrate, time point: terminal (~4-5 doublings, model-specific) | 0.0614 | 0.965 | 0.0567 | -0.897 | -0.02
in vitro model: cholesterol 0.05 mM, time point: constant (~7 days, model-specific) | 0.0842 | 0.701 | -0.298 | – | -0.173
in vitro model: cholesterol 0.05 mM, time point: terminal (~4-5 doublings, model-specific) | 0.0953 | 0.887 | 0.234 | – | -0.127
in vitro model: cholesterol-high 0.2 mM, time point: constant (~7 days, model-specific) | 0.029 | 0.952 | 0.64 | – | -0.414
in vitro model: cholesterol-high 0.2 mM, time point: terminal (~4-5 doublings, model-specific) | 0.0647 | 0.996 | 0.607 | 0.842 | -0.635
in vitro model: dormancy (butyrate + nitrate, low O2), time point: constant (~7 days, model-specific) | 0.0667 | 0.847 | -0.0202 | – | 0.407
in vitro model: dormancy (butyrate + nitrate, low O2), time point: terminal (~4-5 doublings, model-specific) | 0.067 | 0.988 | 0.236 | -0.513 | -0.164
in vitro model: standard 7H9 glycerol, time point: constant = terminal | 0.0324 | 0.894 | -0.0789 | – | 0.143
in vitro model: valerate, time point: constant (~7 days, model-specific) | 0.0519 | 0.845 | -0.00587 | – | 0.0704
in vitro model: valerate, time point: terminal (~4-5 doublings, model-specific) | 0.0294 | 0.933 | 0.0274 | -1.32 | 0.0354

COc1c(N2C[C@@H]3CCCN[C@@H]3C2)c(F)cc2c(=O)c(C(=O)O)cn(C3CC3)c12 [moxifloxacin] + CO[C@H]1/C=C/O[C@@]2(C)Oc3c(C)c(O)c4c(O)c(c(/C=N/N5CCN(C6CCCC6)CC5)c(O)c4c3C2=O)NC(=O)/C(C)=C\C=C\[C@H](C)[C@H](O)[C@@H](C)[C@@H](O)[C@@H](C)[C@H](OC(C)=O)[C@@H]1C [rifapentine]
Settings | AUC25, [4] | Einf, [3] | FIC50, [2] | FIC90, [1] | GRinf, [5]
in vitro model: acidic pH 5.7, time point: constant (~7 days, model-specific) | 0.0469 | 0.776 | 0.389 | – | 0.0776
in vitro model: acidic pH 5.7, time point: terminal (~4-5 doublings, model-specific) | 0.0544 | 0.962 | 0.463 | 0.271 | -0.0233
in vitro model: intracellular J774, time point: constant = terminal | – | 0.973 | – | 0.684 | -0.226

Settings | AUC25, [4] | Einf, [3] | FIC50, [2] | FIC90, [1] | GRinf, [5]
in vitro model: butyrate, time point: constant (~7 days, model-specific) | 0.0933 | 0.893 | 0.555 | 0.73 | 0.0724
in vitro model: butyrate, time point: terminal (~4-5 doublings, model-specific) | 0.0734 | 0.956 | 0.515 | 0.586 | 0.0272
in vitro model: cholesterol 0.05 mM, time point: constant (~7 days, model-specific) | 0.131 | 0.594 | 0.777 | – | -0.074
in vitro model: cholesterol 0.05 mM, time point: terminal (~4-5 doublings, model-specific) | 0.0876 | 0.887 | 0.482 | 1.32 | -0.0906
in vitro model: cholesterol-high 0.2 mM, time point: constant (~7 days, model-specific) | 0.082 | 0.903 | 0.798 | -0.159 | -0.242
in vitro model: cholesterol-high 0.2 mM, time point: terminal (~4-5 doublings, model-specific) | 0.0641 | 0.996 | 0.807 | 0.727 | -0.866
in vitro model: dormancy (butyrate + nitrate, low O2), time point: constant (~7 days, model-specific) | 0.0771 | 0.915 | 0.269 | 0.0994 | 0.17
in vitro model: dormancy (butyrate + nitrate, low O2), time point: terminal (~4-5 doublings, model-specific) | 0.0532 | 0.985 | 0.72 | 0.719 | -0.231
in vitro model: standard 7H9 glycerol, time point: constant = terminal | 0.0584 | 0.893 | 0.509 | 0.225 | 0.0707
in vitro model: valerate, time point: constant (~7 days, model-specific) | 0.0746 | 0.844 | 0.4 | – | 0.0459
in vitro model: valerate, time point: terminal (~4-5 doublings, model-specific) | 0.0547 | 0.933 | 0.541 | 1.69 | 0.0582
